Data on 17 molecules can be found in patent US11078228B2, “Ectonucleotidase inhibitors and methods of use thereof” (Calithera Biosciences, Inc., priority 2018, dated 2021).

The IC50 is the point on the concentration scale where inhibition reaches its midpoint.

The target in this experiment is recombinant CD73 (Homo sapiens (Human), UniProt P21589). Description: Assay 2: Inhibition of the CD73 enzyme in vitro (0.05 nM CD73, 1 hour 37° C., Malachite Green). The format is biochemical. The following applies: 0.05 nM CD73, 50 μM AMP, 1 hour at 37° C. The method in brief: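 Free phosphate was quantified from absorbance at 630 nm against a phosphate standard curve. This was read 5 min after Malachite Green was added at room temperature. Beforehand, the recombinant soluble enzyme reacted for 1 hour at 37° C.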
recombinant CD73, sequence (P21589 27-547): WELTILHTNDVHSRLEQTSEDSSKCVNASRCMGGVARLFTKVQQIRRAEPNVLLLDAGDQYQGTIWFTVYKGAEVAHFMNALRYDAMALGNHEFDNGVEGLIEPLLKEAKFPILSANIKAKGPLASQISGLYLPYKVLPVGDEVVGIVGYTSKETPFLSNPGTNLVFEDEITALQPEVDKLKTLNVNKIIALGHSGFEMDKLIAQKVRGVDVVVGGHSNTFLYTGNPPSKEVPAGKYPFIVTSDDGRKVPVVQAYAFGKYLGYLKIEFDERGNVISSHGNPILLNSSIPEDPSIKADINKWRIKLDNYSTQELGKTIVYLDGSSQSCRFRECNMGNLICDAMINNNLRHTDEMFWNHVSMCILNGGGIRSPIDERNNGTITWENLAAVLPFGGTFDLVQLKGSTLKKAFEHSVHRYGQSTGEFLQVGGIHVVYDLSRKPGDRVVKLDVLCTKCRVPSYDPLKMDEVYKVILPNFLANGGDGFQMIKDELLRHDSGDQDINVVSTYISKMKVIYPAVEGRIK
Turning to `C#C[C@@]1(O)[C@@H](COC(Cc2ccc(N3CCCNC3=O)cc2)(C(=O)O)C(=O)O)O[C@@H](n2cnc3c(N)cc(Cl)nc32)[C@@H]1O` [Example 157, 2-(((2R,3S,4R,5R)-5-(7-amino-5-chloro-3H-imidazo[4,5-b]pyridin-3-yl)-3-ethynyl-3,4-dihydroxytetrahydrofuran-2-yl)methoxy)-2-(4-(2-oxotetrahydropyrimidin-1(2H)-yl)benzyl)malonic acid], the IC50 was 0.37 nM.

Take `C#C[C@@]1(O)[C@@H](COC(Cc2ccc(-c3cccnc3N)cc2)(C(=O)O)C(=O)O)O[C@@H](n2cnc3c(N)nc(Cl)nc32)[C@@H]1O` [Example 197, 2-(((2R,3S,4R, 5R)-5-(6-amino-2-chloro-9H-purin-9-yl)-3-ethynyl-3,4-dihydroxytetrahydrofuran-2-yl)methoxy)-2-(4-(2-aminopyridin-3-yl)benzyl)malonic acid]: the IC50 came to 0.73 nM.

Take `C#C[C@@]1(O)[C@@H](COC(Cc2ccsc2)(C(=O)O)C(=O)O)O[C@@H](n2cnc3c(NC(C)C)nc(Cl)nc32)[C@@H]1O` [Example 33, 2-(((2R,3S,4R,5R)-5-(2-chloro-6-(isopropylamino)-9H-purin-9-yl)-3-ethynyl-3,4-dihydroxytetrahydrofuran-2-yl)methoxy)-2-(thiophen-3-ylmethyl)malonic acid]: the half-maximal inhibitory concentration (IC50) was found to be 2 nM.

For the molecule `C#C[C@@]1(O)[C@@H](COC(Cc2ccccc2)(C(=O)O)C(=O)OCC)O[C@@H](n2cnc3c(NCc4ccccc4Cl)nc(Cl)nc32)[C@@H]1O` (stereo partly drawn) [Example 108, 2-benzyl-2-(((2R,3S,4R,5R)-5-(2-chloro-6-((2-chlorobenzyl)amino)-9H-purin-9-yl)-3-ethynyl-3,4-dihydroxytetrahydrofuran-2-yl)methoxy)-3-ethoxy-3-oxopropanoic acid], the IC50 was found to be 3 nM.

For `C#C[C@@]1(O)[C@@H](COC(Cc2ccccc2)(C(=O)O)C(=O)O)O[C@@H](n2cnc3c(N4CCOCC4)nc(Cl)nc32)[C@@H]1O` [Example 79, 2-benzyl-2-(((2R,3S,4R,5R)-5-(2-chloro-6-morpholino-9H-purin-9-yl)-3-ethynyl-3,4-dihydroxytetrahydrofuran-2-yl)methoxy)malonic acid], the IC50 amounted to 4 nM.

As to `C#C[C@@]1(O)[C@@H](COC(Cc2ccccc2)(C(=O)O)C(=O)O)O[C@@H](n2cnc3c(NCCO)nc(Cl)nc32)[C@@H]1O` [Example 97, 2-benzyl-2-(((2R,3S,4R,5R)-5-(2-chloro-6-((2-hydroxyethyl)amino)-9H-purin-9-yl)-3-ethynyl-3,4-dihydroxytetrahydrofuran-2-yl)methoxy)malonic acid], the IC50 amounted to 2 nM.

For the molecule `C#C[C@@]1(O)[C@@H](COC(Cc2ccccc2)(C(=O)O)C(=O)O)O[C@@H](n2cnc3c(-c4cnn(S(=O)(=O)c5ccc(C)cc5)c4)nc(Cl)nc32)[C@@H]1O` [Example 159, 2-benzyl-2-(((2R,3S,4R,5R)-5-(2-chloro-6-(1-tosyl-1H-pyrazol-4-yl)-9H-purin-9-yl)-3-ethynyl-3,4-dihydroxytetrahydrofuran-2-yl)methoxy)malonic acid], the IC50 stood at 476 nM.

For `C#C[C@@]1(O)[C@@H](COC(Cc2ccc(-c3ccccc3)c(C(=O)O)c2)(C(=O)O)C(=O)O)O[C@@H](n2cnc3c(N)nc(Cl)nc32)[C@@H]1O` [Example 13, 2-(((2R,3S,4R,5R)-5-(6-amino-2-chloro-9H-purin-9-yl)-3-ethynyl-3,4-dihydroxytetrahydrofuran-2-yl)methoxy)-2-((2-carboxy-[1,1′-biphenyl]-4-yl)methyl)malonic acid], the IC50 is 0.3 nM.

Take `C#C[C@@]1(O)[C@@H](COC(Cc2ccc(-c3ccc[nH]c3=O)cc2)(C(=O)O)C(=O)O)O[C@@H](n2cnc3c(NC)nc(Cl)nc32)[C@@H]1O` [Example 147, 2-(((2R,3S,4R,5R)-5-(2-chloro-6-(methylamino)-9H-purin-9-yl)-3-ethynyl-3,4-dihydroxytetrahydrofuran-2-yl)methoxy)-2-(4-(2-oxo-1,2-dihydropyridin-3-yl)benzyl)malonic acid]: the IC50 turned out to be 0.58 nM.

In the case of `C#C[C@@]1(O)[C@@H](COC(Cc2ccn[nH]2)(C(=O)O)C(=O)O)O[C@@H](n2cnc3c(N)nc(Cl)nc32)[C@@H]1O` [Example 158, 2-((1H-pyrazol-5-yl)methyl)-2-(((2R,3S,4R,5R)-5-(6-amino-2-chloro-9H-purin-9-yl)-3-ethynyl-3,4-dihydroxytetrahydrofuran-2-yl)methoxy)malonic acid], the IC50 came out at 8 nM.

Turning to `C#C[C@@]1(O)[C@@H](COC(Cc2ccccc2)(C(=O)O)C(=O)O)O[C@@H](n2cnc3c(N4CCC4CO)nc(Cl)nc32)[C@@H]1O` (stereo partly drawn) [Example 42, 2-benzyl-2-(((2R,3S,4R,5R)-5-(2-chloro-6-(2-(hydroxymethyl)azetidin-1-yl)-9H-purin-9-yl)-3-ethynyl-3,4-dihydroxytetrahydrofuran-2-yl)methoxy)malonic acid], the IC50 is 1 nM.

`C#C[C@@]1(O)[C@@H](COC(Cc2ccccc2)(C(=O)O)C(=O)O)O[C@@H](n2cnc3c(NC4(CO)CC4)nc(Cl)nc32)[C@@H]1O` [Example 43, 2-benzyl-2-(((2R,3S,4R,5R)-5-(2-chloro-6-((1-(hydroxymethyl)-cyclopropyl)amino)-9H-purin-9-yl)-3-ethynyl-3,4-dihydroxytetrahydrofuran-2-yl)methoxy)malonic acid]: the half-inhibitory concentration (IC50) was 2 nM.

With `C#C[C@@]1(O)[C@@H](COC(Cc2ccccc2)(C(=O)O)C(=O)O)O[C@@H](n2cnc3c(N(C)CC)nc(Cl)nc32)[C@@H]1O` [Example 66, 2-benzyl-2-(((2R,3S,4R,5R)-5-(2-chloro-6-(ethyl(methyl)amino)-9H-purin-9-yl)-3-ethynyl-3,4-dihydroxytetrahydrofuran-2-yl)methoxy)malonic acid], the IC50 came out at 0.3 nM.

In the case of `C#C[C@@]1(O)[C@@H](COC(Cc2ccccc2)(C(=O)O)C(=O)O)O[C@@H](n2cnc3c(N)nc(C(N)=O)nc32)[C@@H]1O` [Example 122, 2-(((2R,3S,4R,5R)-5-(6-amino-2-carbamoyl-9H-purin-9-yl)-3-ethynyl-3,4-dihydroxytetrahydrofuran-2-yl)methoxy)-2-benzylmalonic acid], the IC50 is 40 nM.

In the case of `C#C[C@@]1(O)[C@@H](COC(Cc2ccccc2)(C(=O)O)C(=O)O)O[C@@H](n2cnc3c(NCc4ccncc4)nc(Cl)nc32)[C@@H]1O` [Example 78, 2-benzyl-2-(((2R,3S,4R,5R)-5-(2-chloro-6-((pyridin-4-ylmethyl)amino)-9H-purin-9-yl)-3-ethynyl-3,4-dihydroxytetrahydrofuran-2-yl)methoxy)malonic acid], the IC50 stood at 2 nM.

As to `C#C[C@@]1(O)[C@@H](COC(Cc2ccccc2)(C(=O)O)C(=O)O)O[C@@H](n2cnc3c(N(C)C)nc(Cl)nc32)[C@@H]1O` [Example 89, 2-benzyl-2-(((2R,3S,4R,5R)-5-(2-chloro-6-(dimethylamino)-9H-purin-9-yl)-3-ethynyl-3,4-dihydroxytetrahydrofuran-2-yl)methoxy)malonic acid], the IC50 was 1.1 nM.

As for `C#C[C@@]1(O)[C@@H](COC(Cc2ccccc2)(C(=O)O)C(=O)O)O[C@@H](n2cnc3c(N(CCO)CCO)nc(Cl)nc32)[C@@H]1O` [Example 37, 2-benzyl-2-(((2R,3S,4R,5R)-5-(6-(bis(2-hydroxyethyl)amino)-2-chloro-9H-purin-9-yl)-3-ethynyl-3,4-dihydroxytetrahydrofuran-2-yl)methoxy)malonic acid], the IC50 was 6 nM.
